Laboratory results published in ChEMBL document CHEMBL2086309, “Discovery of liver selective non-steroidal glucocorticoid receptor antagonist as novel antidiabetic agents” (Bioorg Med Chem Lett, 2012).

Experiments:
[1] = molecular target: T1, Glucocorticoid receptor (Homo sapiens, UniProt P04150); assay: Displacement of [3H]dexamethasone from human glucocorticoid receptor expressed in baculovirus infected Sf9 cells after overnight incubation by scintillation counting
T1 sequence (P04150 whole entry): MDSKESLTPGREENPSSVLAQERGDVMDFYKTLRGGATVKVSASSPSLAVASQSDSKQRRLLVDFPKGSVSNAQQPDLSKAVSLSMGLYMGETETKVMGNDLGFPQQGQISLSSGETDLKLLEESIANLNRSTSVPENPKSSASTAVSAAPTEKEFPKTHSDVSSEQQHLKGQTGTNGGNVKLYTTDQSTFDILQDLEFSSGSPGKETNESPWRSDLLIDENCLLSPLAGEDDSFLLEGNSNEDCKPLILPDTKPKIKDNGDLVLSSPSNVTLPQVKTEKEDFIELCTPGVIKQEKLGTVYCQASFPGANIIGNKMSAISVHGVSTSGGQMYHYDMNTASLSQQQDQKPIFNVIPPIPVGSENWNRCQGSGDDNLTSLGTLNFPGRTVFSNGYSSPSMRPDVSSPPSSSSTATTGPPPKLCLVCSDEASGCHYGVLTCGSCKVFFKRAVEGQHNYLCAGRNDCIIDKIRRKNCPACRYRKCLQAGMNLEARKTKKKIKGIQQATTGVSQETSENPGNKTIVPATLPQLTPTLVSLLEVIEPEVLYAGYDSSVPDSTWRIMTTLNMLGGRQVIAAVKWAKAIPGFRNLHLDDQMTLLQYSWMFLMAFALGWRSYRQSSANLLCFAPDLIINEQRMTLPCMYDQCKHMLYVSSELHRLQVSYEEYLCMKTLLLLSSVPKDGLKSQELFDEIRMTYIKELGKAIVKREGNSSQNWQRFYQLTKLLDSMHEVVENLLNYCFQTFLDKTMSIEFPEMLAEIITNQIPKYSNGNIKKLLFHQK

[2] = molecular target: T1, Glucocorticoid receptor; assay: Antagonist activity at human glucocorticoid receptor expressed in GRAF cells assessed as inhibition of dexamethasone-induced alkaline phosphatase expression after 48 hrs by reporter gene assay; type: functional, cell-based
[3] = molecular target: T2, Glucocorticoid receptor (Rattus norvegicus, UniProt P06536); assay: Antagonist activity at glucocorticoid receptor in rat hepatocytes assessed as inhibition of dexamethasone-induced […] expression incubated for 30 mins prior to dexamethasone-induction measured after 4 hrs by reporter gene assay; type: functional, cell-based, Hepatocyte
T2 sequence (P06536 whole entry): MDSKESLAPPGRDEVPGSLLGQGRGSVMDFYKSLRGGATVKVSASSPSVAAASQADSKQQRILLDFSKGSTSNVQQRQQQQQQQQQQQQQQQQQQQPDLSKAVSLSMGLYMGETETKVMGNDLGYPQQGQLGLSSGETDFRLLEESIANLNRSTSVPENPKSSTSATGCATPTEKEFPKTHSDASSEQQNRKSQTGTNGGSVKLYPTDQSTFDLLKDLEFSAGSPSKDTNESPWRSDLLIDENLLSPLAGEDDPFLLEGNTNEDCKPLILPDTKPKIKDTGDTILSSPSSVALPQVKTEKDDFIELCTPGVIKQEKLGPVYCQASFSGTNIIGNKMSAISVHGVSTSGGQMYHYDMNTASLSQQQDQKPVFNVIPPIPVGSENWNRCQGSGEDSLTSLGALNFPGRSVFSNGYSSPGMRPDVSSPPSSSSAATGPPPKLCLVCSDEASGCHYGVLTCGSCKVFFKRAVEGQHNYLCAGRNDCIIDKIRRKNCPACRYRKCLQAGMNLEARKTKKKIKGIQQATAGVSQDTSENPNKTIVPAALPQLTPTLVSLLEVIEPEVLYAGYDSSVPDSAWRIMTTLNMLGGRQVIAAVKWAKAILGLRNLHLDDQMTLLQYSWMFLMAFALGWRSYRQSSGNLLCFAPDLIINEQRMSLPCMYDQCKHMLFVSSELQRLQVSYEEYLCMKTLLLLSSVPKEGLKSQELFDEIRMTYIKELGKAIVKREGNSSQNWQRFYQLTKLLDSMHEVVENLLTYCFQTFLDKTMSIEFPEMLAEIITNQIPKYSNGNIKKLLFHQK

[4] = molecular target: T1, Glucocorticoid receptor; assay: Displacement of [3H]dexamethasone from human glucocorticoid receptor expressed in baculovirus infected Sf9 cells after 16-18 hrs by beta counting
[5] = molecular target: T1, Glucocorticoid receptor; assay: Antagonist activity at human glucocorticoid receptor expressed in CHOK1 cells assessed as inhibition of dexamethasone-induced alkaline phosphatase expression after 46 hrs by reporter gene assay; type: functional, cell-based, CHO-K1
[6] = molecular target: T2, Glucocorticoid receptor; assay: Antagonist activity at glucocorticoid receptor in rat H4IIE cells assessed as inhibition of dexamethasone-induced […] expression after 24 hrs by reporter gene assay; type: functional, cell-based

| SMILES | IC50 [1] [nM] | IC50 [2] [nM] | IC50 [3] [nM] | IC50 [4] [nM] | IC50 [5] [nM] | IC50 [6] [nM] |
| --- | --- | --- | --- | --- | --- | --- |
| O=C(O)Cc1ccc(N(Cc2ccccc2)Cc2ccc(Oc3ccccc3)cc2)cc1 | 1910 | – | – | – | – | – |
| O=C(O)Cc1cc(Br)c(N(Cc2ccc(Oc3ccccc3Cl)cc2)Cc2cc(F)cc(F)c2)c(Br)c1 | 235 | 512 | 3000 | – | – | – |
| COc1ccc(Oc2ccc(CN(Cc3cc(F)cc(F)c3)c3c(Br)cc(CC(=O)O)cc3Br)cc2)c(OC)c1 | 1600 | – | – | – | – | – |
| Cc1c(NS(C)(=O)=O)cccc1N(Cc1ccc(Oc2ccc(F)c(OCC(=O)O)c2)cc1)Cc1cc(F)cc(F)c1 | 4.6 | 432 | 1880 | – | – | – |
| O=C(O)Cc1cc(Br)c(N(Cc2ccc(Oc3ccccc3)cc2)Cc2cccc(F)c2)c(Br)c1 | 820 | – | – | – | – | – |
| Cc1ccccc1Oc1ccc(CN(Cc2cc(F)cc(F)c2)c2c(Br)cc(CC(=O)O)cc2Br)cc1 | 1280 | – | – | – | – | – |
| O=C(O)Cc1cc(Br)c(N(Cc2ccc(Oc3ccccc3C(F)(F)F)cc2)Cc2cc(F)cc(F)c2)c(Br)c1 | 298 | 598 | 3300 | – | – | – |

The next lines start with the values.

| IC50 [1] [nM] | IC50 [2] [nM] | IC50 [3] [nM] | IC50 [4] [nM] | IC50 [5] [nM] | IC50 [6] [nM] | SMILES |
| --- | --- | --- | --- | --- | --- | --- |
| 96 | 391 | 2600 | – | – | – | O=C(O)Cc1cc(Br)c(N(Cc2ccc(Oc3ccc(Cl)cc3Cl)cc2)Cc2cc(F)cc(F)c2)c(Br)c1 |
| 111 | 421 | 2900 | – | – | – | O=C(O)Cc1cc(Br)c(N(Cc2ccc(Oc3ccc(C(F)(F)F)cc3C(F)(F)F)cc2)Cc2cc(F)cc(F)c2)c(Br)c1 |
| 20 | 410 | 2490 | 19 | 400 | 2500 | COc1cc(C(=O)c2cccc(C)c2)c(Oc2c(Br)cc(CC(=O)O)cc2Br)cc1C(C)C |
